We go through two compounds from patent US12285503B2, “Methods and reagents for tumor targeting with greater efficacy and less toxicity” (CORNELL UNIVERSITY, priority 2017, dated 2025).

The target in data set [1] is T1, PSMA (Homo sapiens, UniProt Q04609).
T1 construct: when treating prostate cancer patients with PSMA-617-Ac^225 has been reported; host or cells: prostate cancer patients (Kratochwil et al., J. Nucl. Med. 2017)
As to conditions: cited from earlier work.

For data set [2], the target named is T1, PSMA. The data set is described as follows: Normal tissue bio-distribution / organ radioactive dose of PSMA-targeting agents in patients. The class given is in vivo. An excerpt: While the two different classes of agents both bind to their target (e.g., PSMA, SSTR-2, CD20, etc)-expressing tumor cells, the normal tissues that get targeted differs between classes of agents. As an example, PSMA is expressed not only by prostate cancer cells but also by the normal parotid and other salivary glands, lacrimal glands, kidney and small bowel (See FIGS. 4-7). […] With both types of agents, the tumor sites are targeted, but the normal tissues that are targeted are different and virtually mutually exclusive.

For data set [3] the following is noted: limit to the kidney and salivary glands; cited from earlier work.
Data set [4] concerns the target T1, PSMA. Nature of the data set: PSA declines as indication of anti-tumor activity in patients. The class given is in vivo. The source says: J591-Lu^177 begins to induce PSA declines, as an indication of anti-tumor activity, at an administered ^177Lu dose of ≤30 mCi/m^2 given twice at a 2 week interval. As the dose is increased to 140, 160 and 180 mCi [total], the magnitude of the PSA/anti-tumor response gets progressively greater.
PSMA-617/ligand-Lu^177 begins to induce PSA declines at an administered cumulative ^177Lu dose of 300 mCi (11.1 Gbq) given in a 2-dose regimen at a 2 week interval (150 mCi×2). As the dose is increased to 2-dose totals of 400-500 mCi (14.8-18.5 GBq), the magnitude of the PSA/anti-tumor response gets progressively greater.

The subject of another data set is CWR22Rv1 cells. Nature of the data set: Internalization assay, CWR22Rv1 cells. It is filed as cell-based. The settings on record: 1 hour at 37° C. The method, then: (§1) Internalization assay. LNCaP and CWR22Rv1 cells were trypsinized and aliquoted into tubes at 1×10^6 cells per tube. Cells were washed once with RPMI (no FBS). ^177Lu-J591 (150,000 CPM) in […] RPMI (no FBS) per tube and/or ^177Lu-PSMA-617 (110,000 CPM) was added in […] RPMI (no FBS) per tube. The samples were incubated for 1 hour at 37° C., with the cells re-suspended every 15 minutes. After incubation, the cells were washed twice with 0.1% BSA/PBS to remove unbound/un-internalized binding agents. Samples were counted.

The next data set has as its system LNCaP cells. The data set is described as follows: Internalization assay, LNCaP cells. It is filed as cell-based. The settings on record: 1 hour at 37° C. The protocol:
as §1

Each structure is given as a SMILES string.

T1 sequence (Q04609 whole entry): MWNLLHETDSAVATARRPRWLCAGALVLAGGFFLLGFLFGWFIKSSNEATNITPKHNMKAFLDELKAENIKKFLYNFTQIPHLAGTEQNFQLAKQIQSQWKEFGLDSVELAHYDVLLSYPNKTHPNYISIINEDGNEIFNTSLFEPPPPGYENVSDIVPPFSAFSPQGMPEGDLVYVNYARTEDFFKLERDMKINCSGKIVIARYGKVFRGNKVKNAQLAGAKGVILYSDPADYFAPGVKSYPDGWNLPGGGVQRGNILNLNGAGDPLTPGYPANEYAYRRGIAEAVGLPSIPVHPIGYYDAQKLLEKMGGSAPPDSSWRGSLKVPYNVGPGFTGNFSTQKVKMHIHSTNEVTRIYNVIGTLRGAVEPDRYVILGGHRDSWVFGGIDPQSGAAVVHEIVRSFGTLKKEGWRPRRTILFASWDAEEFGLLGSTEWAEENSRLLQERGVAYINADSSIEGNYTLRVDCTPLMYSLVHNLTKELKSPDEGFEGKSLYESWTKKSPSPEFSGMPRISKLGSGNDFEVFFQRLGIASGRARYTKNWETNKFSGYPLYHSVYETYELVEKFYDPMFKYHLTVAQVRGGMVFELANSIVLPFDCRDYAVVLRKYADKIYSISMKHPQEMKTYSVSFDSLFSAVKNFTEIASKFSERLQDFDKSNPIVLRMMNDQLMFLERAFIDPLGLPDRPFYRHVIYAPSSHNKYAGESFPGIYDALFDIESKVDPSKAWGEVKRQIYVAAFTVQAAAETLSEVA

For `O=C([O-])CC[C@H](NC(=O)N[C@@H](CCCCNC(=O)[C@H](Cc1ccc2ccccc2c1)NC(=O)C1CCC(CNC(=O)CN2CCN(CC(=O)[O-])CCN(CC(=O)[O-])CCN(CC(=O)[O-])CC2)CC1)C(=O)[O-])C(=O)[O-].[225Ac].[H+].[H+].[H+]` (stereo partly shown) [PSMA-617-Ac^225], at PSMA [1] (human, in vivo), the tolerable dose was 100 Kbq/kg and the “treatment activity above which severe xerostomia becomes the dose-limiting toxicity” value is given as “exceeded 100 kBq/kg per cycle”. The anti-tumor response entry at PSMA [1] (treatment activity 50 kBq/kg, patients with high tumor burden) was “insufficient anti-tumor response”. Also, at PSMA [1] (treatment activity 50 kBq/kg), the toxicity result is recorded as “without toxicity”.
As for `O=C([O-])CN1CCN(CC(=O)[O-])CCN(CC(=O)NCC2CCC(C(=O)N[C@@H](Cc3ccc4ccccc4c3)C(=O)NCCCC[C@H](NC(=O)N[C@@H](CCC(=O)O)C(=O)O)C(=O)O)CC2)CCN(CC(=O)[O-])CC1.[177Lu+3]` (stereo partly shown) [PSMA-617-^177Lu], the “dose to the bone marrow / thrombocytopenia” value on PSMA [2] is “does not cause thrombocytopenia”. For the same compound, the “maximum safe cumulative dose” value in data set [3] is on record as 27-30 Gbq. In addition, the “administered cumulative 177Lu dose at which PSA declines begin” value at PSMA [4] (2-dose regimen at a 2 week interval) was found to be 11.1 Gbq; at PSMA [4] (2-dose regimen at a 2 week interval (150 mCi×2)) it was 300 mCi. Also, the 177Lu internalization result in the data set on CWR22Rv1 cells and in the data set on LNCaP cells was “internalized to a similar degree” in each case.
